Legend:
Assay in all cases: relative viability (nuclei count vs DMSO), 5 days (fraction); higher = more cells survive
EPLC-272H = tested on: EPLC-272H
How it was run: (§1)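 Lung cancer cell lines were seeded in 1536-well plates and dosed by pin tool the next day, with either a single drug or a fixed anchor-drug dose combined with five library-drug doses (not always all listed) spaced in √10 steps. Five days later, one step fixed the cells and stained their nuclei (final 0.05% Triton X-100, 1% formaldehyde, 1 ug/ml Hoechst), and nuclei were counted on 4× images. Relative viability is the nuclei count in treated wells divided by the count in vehicle wells, and each value is the median of duplicate plates.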

A-427 = tested on: A-427
How it was run: as §1

EKVX = tested on: EKVX
How it was run: as §1

LXF-289 = tested on: LXF-289
How it was run: as §1

HCC-827 = tested on: HCC-827
How it was run: as §1

NCI-H1650 = tested on: NCI-H1650
How it was run: as §1

SW 1573 = tested on: SW 1573
How it was run: as §1

NCI-H358 = tested on: NCI-H358
How it was run: as §1

COR-L23 = tested on: COR-L23
How it was run: as §1

NCI-H460 = tested on: NCI-H460
How it was run: as §1

NCI-H1651 = tested on: NCI-H1651
How it was run: as §1

NCI-H2126 = tested on: NCI-H2126
How it was run: as §1

HCC-44 = tested on: HCC-44
How it was run: as §1

NCI-H1915 = tested on: NCI-H1915
How it was run: as §1

LK-2 = tested on: LK-2
How it was run: as §1

NCI-H2087 = tested on: NCI-H2087
How it was run: as §1

201T = tested on: 201T
How it was run: as §1

LCLC-103H = tested on: LCLC-103H
How it was run: as §1

BEN = tested on: BEN
How it was run: as §1

EMC-BAC-2 = tested on: EMC-BAC-2
How it was run: as §1

NCI-H596 = tested on: NCI-H596
How it was run: as §1

NCI-H2347 = tested on: NCI-H2347
How it was run: as §1

Question: `O=c1[nH]c2ccccc2n1C1CCN(CCCC(c2ccc(F)cc2)c2ccc(F)cc2)CC1` [Pimozide] + C[C@@H](Oc1cc(-c2cnn(C3CCNCC3)c2)cnc1N)c1c(Cl)ccc(F)c1Cl [Crizotinib] (partner 1 µM) was tested. Which relative viability (EPLC-272H; first compound 0.08 µM) did it give?
Answer: 0.789

Question: What about the relative viability (EPLC-272H; first compound 0.253 µM) of the same compound?
Answer: 0.686

Question: What about the relative viability (EPLC-272H; first compound 0.8 µM) of the same compound?
Answer: 0.908

Question: And the relative viability (EPLC-272H; first compound 2.53 µM)?
Answer: 0.904

Question: What about the relative viability (EPLC-272H; first compound 8 µM) of the same compound?
Answer: 0.803

Question: What about the relative viability (A-427; first compound 0.08 µM) of the same compound?
Answer: 0.802

Question: What about the relative viability (A-427; first compound 0.253 µM) of the same compound?
Answer: 0.839

Question: What about the relative viability (A-427; first compound 0.8 µM) of the same compound?
Answer: 0.896

Question: And the relative viability (A-427; first compound 2.53 µM)?
Answer: 0.845

Question: And the relative viability (A-427; first compound 8 µM)?
Answer: 0.878

Question: What about the relative viability (EKVX; first compound 0.253 µM) of the same compound?
Answer: 0.949

Question: What about the relative viability (EKVX; first compound 0.8 µM) of the same compound?
Answer: 0.895

Question: And the relative viability (EKVX; first compound 2.53 µM)?
Answer: 0.865

Question: And the relative viability (EKVX; first compound 8 µM)?
Answer: 0.876

Question: And the relative viability (LXF-289; first compound 0.08 µM)?
Answer: 0.791

Question: What about the relative viability (LXF-289; first compound 0.253 µM) of the same compound?
Answer: 0.775

Question: What about the relative viability (LXF-289; first compound 0.8 µM) of the same compound?
Answer: 0.79

Question: What about the relative viability (LXF-289; first compound 2.53 µM) of the same compound?
Answer: 0.774

Question: And the relative viability (LXF-289; first compound 8 µM)?
Answer: 0.709

Question: And the relative viability (HCC-827; first compound 0.253 µM)?
Answer: 0.887

Question: And the relative viability (HCC-827; first compound 0.8 µM)?
Answer: 0.826

Question: What about the relative viability (HCC-827; first compound 2.53 µM) of the same compound?
Answer: 0.936

Question: And the relative viability (HCC-827; first compound 8 µM)?
Answer: 0.885

Question: What about the relative viability (NCI-H1650; first compound 0.08 µM) of the same compound?
Answer: 0.923

Question: And the relative viability (NCI-H1650; first compound 0.253 µM)?
Answer: 0.946

Question: What about the relative viability (NCI-H1650; first compound 0.8 µM) of the same compound?
Answer: 0.791

Question: And the relative viability (NCI-H1650; first compound 2.53 µM)?
Answer: 0.891

Question: And the relative viability (NCI-H1650; first compound 8 µM)?
Answer: 0.835

Question: And the relative viability (SW 1573; first compound 0.08 µM)?
Answer: 0.797

Question: What about the relative viability (SW 1573; first compound 0.253 µM) of the same compound?
Answer: 0.759

Question: And the relative viability (SW 1573; first compound 0.8 µM)?
Answer: 0.803

Question: And the relative viability (SW 1573; first compound 2.53 µM)?
Answer: 0.805

Question: And the relative viability (SW 1573; first compound 8 µM)?
Answer: 0.779

Question: What about the relative viability (NCI-H358; first compound 0.08 µM) of the same compound?
Answer: 0.573

Question: And the relative viability (NCI-H358; first compound 0.253 µM)?
Answer: 0.519

Question: And the relative viability (NCI-H358; first compound 0.8 µM)?
Answer: 0.448

Question: And the relative viability (NCI-H358; first compound 2.53 µM)?
Answer: 0.335

Question: What about the relative viability (NCI-H358; first compound 8 µM) of the same compound?
Answer: 0.546

Question: What about the relative viability (COR-L23; first compound 0.08 µM) of the same compound?
Answer: 0.656

Question: And the relative viability (COR-L23; first compound 0.253 µM)?
Answer: 0.606

Question: What about the relative viability (COR-L23; first compound 0.8 µM) of the same compound?
Answer: 0.575

Question: And the relative viability (COR-L23; first compound 2.53 µM)?
Answer: 0.601

Question: What about the relative viability (COR-L23; first compound 8 µM) of the same compound?
Answer: 0.575

Question: And the relative viability (NCI-H460; first compound 0.08 µM)?
Answer: 0.841

Question: And the relative viability (NCI-H460; first compound 0.253 µM)?
Answer: 0.671

Question: And the relative viability (NCI-H460; first compound 0.8 µM)?
Answer: 0.899

Question: What about the relative viability (NCI-H460; first compound 2.53 µM) of the same compound?
Answer: 0.871

Question: And the relative viability (NCI-H460; first compound 8 µM)?
Answer: 0.89

Question: And the relative viability (NCI-H1651; first compound 0.08 µM)?
Answer: 0.801

Question: And the relative viability (NCI-H1651; first compound 0.8 µM)?
Answer: 0.818

Question: What about the relative viability (NCI-H1651; first compound 2.53 µM) of the same compound?
Answer: 0.764

Question: And the relative viability (NCI-H1651; first compound 8 µM)?
Answer: 0.933

Question: What about the relative viability (NCI-H2126; first compound 0.08 µM) of the same compound?
Answer: 1.06

Question: What about the relative viability (NCI-H2126; first compound 0.253 µM) of the same compound?
Answer: 0.976

Question: What about the relative viability (NCI-H2126; first compound 0.8 µM) of the same compound?
Answer: 0.976

Question: And the relative viability (NCI-H2126; first compound 2.53 µM)?
Answer: 1.02

Question: What about the relative viability (NCI-H2126; first compound 8 µM) of the same compound?
Answer: 1

Question: And the relative viability (HCC-44; first compound 0.08 µM)?
Answer: 0.73

Question: And the relative viability (HCC-44; first compound 0.253 µM)?
Answer: 0.733

Question: And the relative viability (HCC-44; first compound 0.8 µM)?
Answer: 0.743

Question: And the relative viability (HCC-44; first compound 2.53 µM)?
Answer: 0.829

Question: And the relative viability (HCC-44; first compound 8 µM)?
Answer: 0.75

Question: And the relative viability (NCI-H1915; first compound 0.08 µM)?
Answer: 0.971

Question: What about the relative viability (NCI-H1915; first compound 0.253 µM) of the same compound?
Answer: 0.863

Question: And the relative viability (NCI-H1915; first compound 0.8 µM)?
Answer: 0.709

Question: And the relative viability (NCI-H1915; first compound 2.53 µM)?
Answer: 0.863

Question: What about the relative viability (NCI-H1915; first compound 8 µM) of the same compound?
Answer: 0.784

Question: What about the relative viability (LK-2; first compound 0.08 µM) of the same compound?
Answer: 0.225

Question: What about the relative viability (LK-2; first compound 0.253 µM) of the same compound?
Answer: 0.224

Question: And the relative viability (LK-2; first compound 0.8 µM)?
Answer: 0.243

Question: And the relative viability (LK-2; first compound 2.53 µM)?
Answer: 0.225

Question: What about the relative viability (LK-2; first compound 8 µM) of the same compound?
Answer: 0.234

Question: What about the relative viability (NCI-H2087; first compound 0.08 µM) of the same compound?
Answer: 0.856

Question: And the relative viability (NCI-H2087; first compound 0.253 µM)?
Answer: 0.721

Question: What about the relative viability (NCI-H2087; first compound 0.8 µM) of the same compound?
Answer: 0.604

Question: What about the relative viability (NCI-H2087; first compound 2.53 µM) of the same compound?
Answer: 0.826

Question: And the relative viability (NCI-H2087; first compound 8 µM)?
Answer: 0.889

Question: And the relative viability (201T; first compound 0.08 µM)?
Answer: 0.995

Question: And the relative viability (201T; first compound 0.253 µM)?
Answer: 1

Question: What about the relative viability (201T; first compound 0.8 µM) of the same compound?
Answer: 1.03

Question: What about the relative viability (201T; first compound 2.53 µM) of the same compound?
Answer: 1.05

Question: What about the relative viability (201T; first compound 8 µM) of the same compound?
Answer: 0.964

Question: What about the relative viability (LCLC-103H; first compound 0.08 µM) of the same compound?
Answer: 1

Question: And the relative viability (LCLC-103H; first compound 0.253 µM)?
Answer: 0.967

Question: And the relative viability (LCLC-103H; first compound 0.8 µM)?
Answer: 1.02

Question: And the relative viability (LCLC-103H; first compound 2.53 µM)?
Answer: 1.07

Question: And the relative viability (LCLC-103H; first compound 8 µM)?
Answer: 1.12

Question: And the relative viability (BEN; first compound 0.08 µM)?
Answer: 1.01

Question: And the relative viability (BEN; first compound 0.253 µM)?
Answer: 0.913

Question: And the relative viability (BEN; first compound 0.8 µM)?
Answer: 0.846

Question: What about the relative viability (BEN; first compound 2.53 µM) of the same compound?
Answer: 0.697

Question: And the relative viability (BEN; first compound 8 µM)?
Answer: 0.969

Question: And the relative viability (EMC-BAC-2; first compound 0.08 µM)?
Answer: 0.752

Question: And the relative viability (EMC-BAC-2; first compound 0.253 µM)?
Answer: 0.79

Question: And the relative viability (EMC-BAC-2; first compound 0.8 µM)?
Answer: 0.691

Question: And the relative viability (EMC-BAC-2; first compound 2.53 µM)?
Answer: 0.616

Question: And the relative viability (EMC-BAC-2; first compound 8 µM)?
Answer: 0.691

Question: What about the relative viability (NCI-H596; first compound 0.08 µM) of the same compound?
Answer: 0.943

Question: And the relative viability (NCI-H596; first compound 0.253 µM)?
Answer: 1.05

Question: What about the relative viability (NCI-H596; first compound 0.8 µM) of the same compound?
Answer: 0.928

Question: And the relative viability (NCI-H596; first compound 2.53 µM)?
Answer: 0.911

Question: And the relative viability (NCI-H596; first compound 8 µM)?
Answer: 0.831

Question: And the relative viability (NCI-H2347; first compound 0.08 µM)?
Answer: 0.807

Question: What about the relative viability (NCI-H2347; first compound 0.253 µM) of the same compound?
Answer: 0.661

Question: And the relative viability (NCI-H2347; first compound 0.8 µM)?
Answer: 0.545

Question: And the relative viability (NCI-H2347; first compound 2.53 µM)?
Answer: 0.517

Question: What about the relative viability (NCI-H2347; first compound 8 µM) of the same compound?
Answer: 0.51

— the supplement of paper PMC10307832
